The inhibition is the relative decrease from the control value, in per cent.

The text below walks through data of article PMC11247503 (Journal of Medicinal Chemistry, 2024).

Where a name gives a salt, the structure may show the parent alone.

The target of one experiment is T1, mouse Spns2 (Mus musculus, UniProt Q91VM4).
T1 construct: expressed in transfected cells; host or cells: HeLa cells (G418-resistant pools)
T1 sequence (Q91VM4 1-549): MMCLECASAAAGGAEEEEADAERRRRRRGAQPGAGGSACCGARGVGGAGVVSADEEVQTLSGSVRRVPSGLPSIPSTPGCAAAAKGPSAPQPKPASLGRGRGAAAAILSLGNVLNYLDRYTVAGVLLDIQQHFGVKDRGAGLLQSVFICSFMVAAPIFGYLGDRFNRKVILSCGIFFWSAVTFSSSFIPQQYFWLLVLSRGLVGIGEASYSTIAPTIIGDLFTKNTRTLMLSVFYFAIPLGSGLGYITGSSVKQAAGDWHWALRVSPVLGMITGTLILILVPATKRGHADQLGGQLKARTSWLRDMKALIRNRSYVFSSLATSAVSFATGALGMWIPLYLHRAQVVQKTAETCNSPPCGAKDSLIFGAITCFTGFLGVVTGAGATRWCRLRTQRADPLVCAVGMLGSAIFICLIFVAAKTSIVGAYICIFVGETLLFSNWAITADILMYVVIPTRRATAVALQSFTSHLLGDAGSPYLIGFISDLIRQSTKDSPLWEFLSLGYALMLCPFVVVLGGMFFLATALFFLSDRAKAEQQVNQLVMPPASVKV
In words: HeLa cell S1P release assay (Spns2 inhibition). Type of experiment: cell-based. Conditions: 1 μM inhibitor; HeLa cells; S1P in media by LC-MS/MS. On the procedure: With a library of analogs of SLB1122168 containing phenylurea, phenylcarbamate, and benzamide as bioisostere of the benzoxazole, we investigated their potential in inhibiting S1P transport using a HeLa cell assay.[36]−[38],[43] Briefly, in this assay, Spns2 is overexpressed whereas the S1P-degrading enzymes (lyase or phosphatases) were blocked with inhibitors.[44],[45] Inhibition of S1P transport is determined by measuring the amount of S1P in the buffer using LC-MS.
This assay was conducted as reported by Kharel et al.[43] Briefly, compounds were assessed in a HeLa cell assay at a 1 μM test concentration, unless noted otherwise. HeLa cells were transfected with a pcDNA3.1 plasmid encoding mouse Spns2, and pools of cells resistant to G418 were selected. S1P catabolic pathways were suppressed by the addition of 4-deoxypyridoxine (1 mM), NaF (2 mM), and Na3VO4 (0.2 mM). After growing cells to near confluence on 12-well tissue culture dishes, growth media was removed, inhibitors were introduced in release media (serum free medium containing 0.2% fatty acid free BSA), and the cells were incubated for 16–18 h at 37 °C. The BSA with bound S1P was concentrated from the release media by TFA-driven precipitation after addition of the d7-S1P internal standard, the S1P extracted from the protein pellet, and quantified by LC-MS/MS. Lower levels of S1P release into the media indicated greater degrees of Spns2 inhibition. Inhibition is reported as the percent decrease in S1P release relative to the control where no inhibitor was introduced.
For “2-Aminoethyl (4-Decylphenyl)carbamate Hydrochloride [8a]”, the “%Inhib. (Spns2 inhibition, percent decrease in S1P secretion relative to control)” value turned out to be 44 ± 7%.

Still in this experiment, the particulars now being: 1 μM inhibitor; HeLa cells; S1P in media by LC-MS/MS; 1 µM.
In the case of `CCCCCCCCCCc1ccc(C(=O)N[C@@H]2CCNC2)cc1.Cl` [(R)-4c, (R)-4-Decyl-N-(pyrrolidin-3-yl)benzamide Hydrochloride], the “%Inhib. (Spns2 inhibition, percent decrease in S1P secretion relative to control)” value was 66 ± 1%.
For the compound `CCCCCCCCCCc1ccc(C(=O)N[C@H]2CCNC2)cc1.Cl` [(S)-4d, (S)-4-Decyl-N-(pyrrolidin-3-yl)benzamide Hydrochloride], the “%Inhib. (Spns2 inhibition, percent decrease in S1P secretion relative to control)” value amounted to 61 ± 5%.

Staying with this experiment, now noted: HeLa, 0.3 μM inhibitor (Figure 5); HeLa cells; read-out: % Inhibition, tail homologation study.
For `CCCCCCCCCCCc1ccc(NC(=O)N2CCNCC2)cc1` [20e, N-(4-Undecylphenyl)piperazine-1-carboxamide Hydrogen Chloride], the inhibition at 0.3 µM came out at 76 ± 5%.
On the same count and under the same terms, next, `CCCCCCCCc1ccc(NC(=O)N2CCNCC2)cc1` [20c, N-(4-Octylphenyl)piperazine-1-carboxamide Hydrogen Chloride]: 48 ± 7%; `CCCCCCCc1ccc(NC(=O)N2CCNCC2)cc1` [20b, N-(4-Heptylphenyl)piperazine-1-carboxamide Hydrogen Chloride]: 28 ± 5%.
Same read-out and setting: next, `CCCCCCCCCCCCCc1ccc(NC(=O)N2CCNCC2)cc1` [20g, N-(4-Tridecylphenyl)piperazine-1-carboxamide Hydrogen Chloride]: 27 ± 12%; `CCCCCCCCCCCCc1ccc(NC(=O)N2CCNCC2)cc1` [20f, N-(4-Dodecylphenyl)piperazine-1-carboxamide Hydrogen Chloride]: 57 ± 1%; `CCCCCCCCCc1ccc(NC(=O)N2CCNCC2)cc1` [20d, N-(4-Nonylphenyl)piperazine-1-carboxamide Hydrogen Chloride]: 61 ± 4%.
On the same count and under the same terms, next, `CCCCCCc1ccc(NC(=O)N2CCNCC2)cc1` [20a, N-(4-Hexylphenyl)piperazine-1-carboxamide Hydrogen Chloride]: 19 ± 2%.

Staying with this experiment, now noted: HeLa, 1 μM inhibitor; HeLa cells; S1P in media by LC-MS/MS; read-out: %Inhib. (Spns2 inhibition, percent decrease in S1P secretion relative to control).
`CCCCCCCCCCc1ccc(C(=O)N2CCNCC2C)cc1` (racemic) [(±)-4j, (4-Decylphenyl)(2-methylpiperazin-1-yl)methanone Hydrochloride]: the inhibition at 1 µM amounted to 61 ± 2%.
For the compound `CCCCCCCCCCc1ccc(NC(=O)N2CC3CCC(C2)N3)cc1` [11k, N-(4-Decylphenyl)-3,8-diazabicyclo[3.2.1]octane-3-carboxamide Hydrochloride], the inhibition at 1 µM was 77%.
Still for that read-out and setting: then `CCCCCCCCCCc1ccc(NC(=O)NC2CCNCC2)cc1` [11h, 1-(4-Decylphenyl)-3-(piperidin-4-yl)urea Hydrochloride], with 34 ± 9%; and `CCCCCCCCCCc1ccc(NC(=O)N2CC3CC2CN3)cc1` (stereo not shown) [11j, N-(4-Decylphenyl)-2,5-diazabicyclo[2.2.1]heptane-2-carboxamide Hydrochloride], with 35%.
With `CCCCCCCCCCc1ccc(NC(=O)N2CCCNCC2)cc1` [11m, N-(4-Decylphenyl)-1,4-diazepane-1-carboxamide Hydrochloride], the inhibition at 1 µM amounted to 72 ± 1%.
On the same count and under the same terms, next, `CCCCCCCCCCc1ccc(NC(=O)N[C@H]2CCCNC2)cc1` [(S)-11f, (S)-1-(4-Decylphenyl)-3-(piperidin-3-yl)urea Hydrochloride]: 78 ± 4%; `CCCCCCCCCCc1ccc(NC(=O)N2CC[N+](C)(C)CC2)cc1` [18b, 4-((4-Decylphenyl)carbamoyl)-1,1-dimethylpiperazin-1-ium Iodide]: 5 ± 3%.
Regarding `CCCCCCCCCCc1ccc(C(=O)N2CCNCC2)cc1` [4h, (4-Decylphenyl)(piperazin-1-yl)methanone Hydrochloride], the inhibition at 1 µM turned out to be 68 ± 5%.
Turning to `CCCCCCCCCCc1ccc(NC(=O)NCCCN)cc1` [11a, 1-(3-Aminopropyl)-3-(4-decylphenyl)urea Hydrochloride], the inhibition at 1 µM was found to be 53%.
Turning to `CCCCCCCCCCc1ccc(C(=O)N2CC3CC2CN3)cc1` (stereo not shown) [4l, (2,5-Diazabicyclo[2.2.1]heptan-2-yl)(4-decylphenyl)methanone Hydrochloride], the inhibition at 1 µM came to 25 ± 2%.
For `CCCCCCCCCCc1ccc(NC(=O)N[C@H]2CCNC2)cc1` [(S)-11d, (S)-1-(4-Decylphenyl)-3-(pyrrolidin-3-yl)urea Hydrochloride], the inhibition at 1 µM is 44 ± 2%.
For `CCCCCCCCCCc1ccc(C(=O)N(C)[C@@H]2CCCNC2)cc1` [(R)-13c, (R)-4-Decyl-N-Methyl-N-(piperidin-3-yl)benzamide Hydrochloride], the inhibition at 1 µM was found to be 51 ± 2%.
The same measure, in the same setting: next, `CCCCCCCCCCc1ccc(C(=O)N2CC3CCC(C2)N3)cc1` [4k, (3,8-Diazabicyclo[3.2.1]octan-3-yl)(4-decylphenyl)methanone Hydrochloride]: 0%.
The same measure, in the same setting: then `CCCCCCCCCCc1ccc(C(=O)N[C@@H]2CCNC2)cc1.Cl` [(R)-4c, (R)-4-Decyl-N-(pyrrolidin-3-yl)benzamide Hydrochloride], with 61 to 66%; and `CCCCCCCCCCc1ccc(NC(=O)O[C@@H]2CCNC2)cc1` [(R)-8b, (R)-Pyrrolidin-3-yl (4-Decylphenyl)carbamate Hydrochloride], with 68 ± 1%; and `CCCCCCCCCCc1ccc(C(=O)N(C)[C@@H]2CCNC2)cc1` [(R)-13b, (R)-4-Decyl-N-methyl-N-(pyrrolidin-3-yl)benzamide Hydrochloride], with 21 ± 1%.
On the same count and under the same terms, next, `CCCCCCCCCCc1ccc(NC(=O)O[C@H]2CCCNC2)cc1` [(S)-8e, (S)-Piperidin-3-yl (4-Decylphenyl)carbamate Hydrochloride]: 48 ± 2%; `CCCCCCCCCCc1ccc(NC(=O)N2CCN(C)CC2)cc1` [18a, N-(4-Decylphenyl)-4-methylpiperazine-1-carboxamide Hydrochloride]: 43 ± 4%.
Take `CCCCCCCCCCc1ccc(C(=S)NCCCN)cc1` [15a, N-(3-Aminopropyl)-4-decylbenzothioamide Hydrochloride]: the inhibition at 1 µM amounted to 23 ± 1%.
The same measure, in the same setting: next, `CCCCCCCCCCc1ccc(C(=O)N[C@H]2CCNC2)cc1.Cl` [(S)-4d, (S)-4-Decyl-N-(pyrrolidin-3-yl)benzamide Hydrochloride]: 61 to 66%; `CCCCCCCCCCc1ccc(C(=O)NCCCN)cc1` [4a, N-(3-Aminopropyl)-4-decylbenzamide Hydrochloride]: 39 ± 9%.
Consider `CCCCCCCCCCc1ccc(NC(=O)O[C@H]2CCNC2)cc1` [(S)-8c, (S)-Pyrrolidin-3-yl (4-Decylphenyl)carbamate Hydrochloride], for which the inhibition at 1 µM was found to be 46%.
As to `CCCCCCCCCCc1ccc(NC(=O)OC2CCNCC2)cc1` [8f, Piperidin-4-yl (4-Decylphenyl)carbamate Hydrochloride], the inhibition at 1 µM came to 51%.
As for `CCCCCCCCCCc1ccc(NC(=O)O[C@@H]2CCCNC2)cc1` [(R)-8d, (R)-Piperidin-3-yl (4-Decylphenyl)carbamate Hydrochloride], the inhibition at 1 µM was 45 ± 3%.
With `CCCCCCCCCCc1ccc(NC(=O)N2CCN[C@H](C)C2)cc1` [(R)-11l, (R)-N-(4-Decylphenyl)-3-methylpiperazine-1-carboxamide Hydrochloride], the inhibition at 1 µM is at least 80%.
Turning to `CCCCCCCCCCc1ccc(C(=O)N[C@H]2CCCNC2)cc1` [(S)-4f, (S)-4-Decyl-N-(piperidin-3-yl)benzamide Hydrochloride], the inhibition at 1 µM stood at 20 ± 3%.
On to `CCCCCCCCCCc1ccc(NC(=O)NC2CNC2)cc1` [11b, 1-(Azetidin-3-yl)-3-(4-decylphenyl)urea 2,2,2-Trifluoroacetate], for which the inhibition at 1 µM was 59 ± 1%.
